Assay results from a melting point compilation (Tetko et al.; mined from patent text by program, amines drawn as free bases though some values may be those of a salt).

Structure (SMILES) | melting point
CN(CCCNC(=O)COc1nc2ccccc2s1)Cc1ccc(Cl)c(Cl)c1 | 113 to 115 °C
COc1ccc(-c2nc(SCCOCCn3ccnc3C)[nH]c2-c2ccc(OC)cc2)cc1 | 77 to 79 °C
CC(=O)c1cccc2nnsc12 | 126 to 127 °C
COc1ccc2c(Cl)nccc2c1 | 72 to 74 °C
COc1ccc(COc2nc(Cl)c(C(C)C)c(OCc3ccc(OC)cc3)n2)cc1 | 69 to 70 °C
CNC1CC=C(c2c[nH]c3ccc(NC(=N)c4cccs4)cc23)CC1 (configuration not stated) | 167 to 169 °C
Nc1ncnc2c1c(-c1ccc(Oc3ccc(OCCO)cc3)cc1)cn2CCO | 166 °C
CSCC(O)(Cn1cncn1)c1ccc(Cl)cc1Cl (configuration not stated) | 117 to 119 °C
CN(Cc1ccccc1)c1sc(-c2ccncc2)c2c1C(=O)CC2 | 145 to 147 °C
CCCOc1ccc([N+](=O)[O-])nc1C | 54 to 56 °C
Cc1ccc(Cc2nc3cc(Cl)c(S(N)(=O)=O)cc3[nH]2)cc1 | 214 to 217 °C
Cc1cc(Br)ccc1NC(=O)c1cccc(S(=O)(=O)N2CCCCCC2)c1 | 177 to 179 °C
O[C@H]1CCCN[C@H]1c1ccccc1 (relative stereo) | 93 to 95 °C
O=C1CCN(c2ccncc2)CC1 | 101 to 104 °C
c1ccc(Cc2cccc3c2[nH]c2ccccc23)cc1 | 117 °C
CSc1coc2ccccc2c1=O | 103 to 105 °C
Cc1[nH]c2ccccc2c1Cc1cccnc1 | 207 to 210 °C
N#CC1(c2ccncc2)CCCCC1 | 79 °C
CCN(CC)C(=O)c1nn(-c2ccc(OC(F)(F)F)cc2)c2cccc(F)c2c1=O | 118 °C
CSc1ccc(-c2cc(=O)nc(N)o2)cc1 | 266 to 267 °C

Next, values leading:

melting point | Structure (SMILES)
183 to 185 °C | CCOc1cc2c(cc1OCC)CCCC(C(=O)N1CCN(C(=O)c3cc(OC)c(OC)c(OC)c3)CC1)=C2
98 to 99 °C | CC(C)(C)OC(=O)NS(=O)(=O)c1ccc(Cl)cc1
85 °C | CCOc1cc(C2(C)CNC(=O)O2)ccc1OC (configuration not stated)
270 °C | CC(=O)OCC(OC(C)=O)c1nc2c(C(F)(F)F)cccc2c(O)c1C(=O)Nc1nccs1 (configuration not stated)
173 to 174 °C | COc1cc2ncnc(N3CCC(C(C)(O)CN4CCCS4(=O)=O)CC3)c2cc1OC (configuration not stated)
39 to 40 °C | CCOC(=O)[C@@H]1OC(c2ccc3c(c2)OCO3)O[C@H]1C(=O)OCC
147 to 148 °C | Cc1nc(N2CCN(Cc3ccccc3)C2=O)sc1C(=O)NCc1ccc(F)cc1
123 to 124 °C | CC(C)[C@H](NC(=O)OC(C)(C)C)C(=O)C1CC(=O)NC1=O (some centres not stated)
99.3 to 102 °C | CCC(Br)C(=O)NOCc1ccccc1 (configuration not stated)
153 to 155 °C | CC(=O)OCCN1CCN(C(=O)Cn2c(=O)sc3ncc(Cl)cc32)CC1
30 to 32.5 °C | C=CCOc1cccc(C(=O)CCC(=O)OC)c1
> 260 °C | COCc1c(C(=O)O)ncc2[nH]c3c(c12)CCCC3
182 °C | CCONC(=O)C(=O)NN
184 to 186 °C | COc1ccc(S(=O)(=O)Nc2cc(C(=O)Nc3ccccc3)ccc2OC)cc1
90 °C | CCOC(=O)C=Cc1cc(C(C)=O)ccc1OC
169 °C | CC(C)(CCC(=O)N[C@H](Cc1ccccc1)C(=O)NCCCCNC(=N)N)C(=O)O
182 to 184 °C | CC(O)=C(C(=O)OC(c1ccccc1)c1ccccc1)N1C(=O)C(NC(=O)C(NC(=O)OC(C)(C)C)c2ccccc2)C1SS(=O)(=O)c1ccc(C)cc1 (configuration not stated)
221 to 222 °C | COc1ccc(C(=O)Nc2ccccc2)cc1Nc1ccc(C2=NC(C)(C)CO2)cc1
178 to 180 °C | CCOC(=O)c1cnc2nn(C)cc2c1NC
250 to 251 °C | CC(=O)N(C)Cc1ccc(C(=O)Cn2cnc3cc(-c4ccc(Cl)cc4)sc3c2=O)cc1
183 to 187 °C | CC(=C1SC(=O)NC1=O)c1ccc(SCCc2ccccc2)cc1
114 to 115 °C | CC(C)N1CCN(c2cccc(N)c2)C(=O)C1
